# Test results taken from patent publication US8008230B2, “Synergistic antifungal DDAC compositions” (priority 2004, dated 2011).
# Like-named read-outs stand apart in the source and are kept apart here.
# Experiments:
# Penicillium digitatum = assay: Curative treatment by dipping of lemons artificially inoculated with Penicillium digitatum; type: in vivo; details: read-out: % Efficacy
# Method: Aqueous test solutions were prepared with concentrations of 10 μg/ml, 100 μg/ml and 1000 μg/ml of DDAC (I); and 500 μg/ml of imazalil (II-a). These test solutions were used to prepare mixtures comprising component (I) and component (II-a) with a concentration respectively of 1000 μg/ml of (I) and 500 μg/ml of (II-a); 100 μg/ml of (I) and 500 μg/ml of (II-a) and 10 μg/ml of (I) and 500 μg/ml of (II-a).
# Lemons were artificially inoculated with a 10 mm diameter cork borer dipped in a spore suspension containing 10^6 cfu/ml of Penicillium digitatum. The lemons were treated after 24 hours by submerging for 30 seconds in one of the test solutions.
# Treated and untreated lemons were incubated for 14 days in a dark climate room at 20° C. After the incubation period, the diameter of fungal growth was measured and % efficacy (growth inhibition) versus control was calculated. Fungal growth was quantified by measuring the distance, in mm, between the perimeter of the 10 mm diameter inoculation ring and the perimeter of the damaged zone.
# Synergy was considered to occur when the observed effect, or measured activity, of a combination of both components was greater than the corresponding Ec value.
# Botrytis cinerea = assay: Poison plate assay (MIC and synergy index); type: cell-based, Botrytis cinerea strain BC03019; details: 168 h
# Method: Activity against fungal growth was determined with the poison plate assay. A calculated amount of a stock solution (containing either DDAC, boscalid, fenhexamid, pyrimethanil, thiophanate-methyl, triflumizole, azoxystrobin, dimoxystrobin, picoxystrobin, or pyraclostrobin in a concentration of 500 ppm in dimethyl sulfoxide) was pipetted into 24-well plates in order to reach a final test concentration ranging from 0.21 to 5 ppm in 12 steps when mixed with a culture medium. These culture media were either Glucose Agar (GA) (10 g glucose, 1.5 g K2HPO4, 2 g KH2PO4, 1 g (NH4)2SO4, 0.5 g MgSO4 and 12.5 g agar in 1 liter deionised water) when pyrimethanil was used as the test substance or Potato Dextrose Agar (PDA) (4 g potato infusion, 20 g bacto dextrose and 15 g bacto agar in 1 liter deionised water) for any of the other test substances. The medium was inoculated with 2 μl of a spore/mycelium suspension. The 24-well plates were kept in the dark at a temperature of 22° C., and a relative humidity of 75% and evaluated for fungal growth after one week.
# The following fungi species were used in the poison plate assay: Penicillium digitatum strain Sas (sensitive to demethylase inhibiting fungicides), Penicillium digitatum strain LDW930223 (reduced sensitivity to demethylase inhibiting fungicides), Penicillium italicum strain H17 (reduced sensitivity to demethylase inhibiting fungicides), Botrytis cinerea strain BC03019, Geotrichum candidum, or Gloeosporium album strain A18.
# The lowest concentration in ppm of each test compound or mixture of test compounds sufficient to inhibit visible growth was taken as the minimum inhibitory concentration (MIC). When no fungal growth was observed, the abbreviation “ng” was used in Table 2. Synergy was calculated using the Synergy Index method described by von Kull et al. (F. C. Kull, P. C. Eismann, H. D. Sylvestrowicz, R. L. Mayer, 1961, Applied Microbiology 9: 538-541).
# Synergistic Index (SI)=(x/m)+(y/n) • m and n are the MIC values of test substances 1 and 2 respectively, when applied alone • x and y are the respective quantities of test substances 1 and 2 in mixtures which also cause the complete inhibition of fungal growth, i.e. x and y equal [quantity of test substances 1 and 2, resp., in the mixture (e.g. 0.8 and 0.2, 066 and 0.33 . . . )] multiplied by [MIC-value of the mixture]. […] A result smaller than 1 indicates a synergistic effect of the combination.
# [1] = % DDAC + % test substance 0 + 100 (test substance alone), Potato Dextrose Agar, one week, read-out: MIC (minimum inhibitory concentration in ppm total a.i.)
compound,measurement,setting,value
"CCCCCCCCCC[N+](C)(C)CCCCCCCCCC.[Cl-] [DDAC, didecyl dimethyl ammonium chloride]",Emax at 10 µg/mL,Penicillium digitatum,0%
same,Emax at 100 µg/mL,Penicillium digitatum,0%
same,Emax at 1000 µg/mL,Penicillium digitatum,22%
same,MIC,"Botrytis cinerea; read-out: MIC (minimum inhibitory concentration in ppm total a.i.), % DDAC + % test substance 100 + 0 (DDAC alone), Glucose Agar (pyrimethanil series), one week",5 µg/mL
same,MIC,"Botrytis cinerea; read-out: MIC (minimum inhibitory concentration in ppm total a.i.), % DDAC + % test substance 100 + 0 (DDAC alone), Potato Dextrose Agar, one week",> 5 µg/mL
C=CCOC(Cn1ccnc1)c1ccc(Cl)cc1Cl (stereo not drawn) [Imazalil (IIa)],Emax at 500 µg/mL,"Penicillium digitatum; test concentration 500 μg/ml, lemon, dipped 24 h after inoculation, 14 days incubation",78%
"O=C(Nc1ccccc1-c1ccc(Cl)cc1)c1cccnc1Cl [boscalid, 2-chloro-N-(4′-chlorobiphenyl-2-yl)-nicotinamide]",MIC,Botrytis cinerea; [1],> 5 µg/mL
"CC1(C(=O)Nc2ccc(O)c(Cl)c2Cl)CCCCC1 [fenhexamid, 2′,3′-dichloro-4′-hydroxy-1-methylcyclohexanecarboxanilide]",MIC,Botrytis cinerea; [1],1.58 µg/mL
"COC(=O)N(OC)c1ccccc1COc1ccn(-c2ccc(Cl)cc2)n1 [pyraclostrobin, methyl N-(2-[1-(4-chlorophenyl)-1H-pyrazol-3-yloxymethyl]phenyl](N-methoxy)carbamate]",MIC,Botrytis cinerea; [1],> 5 µg/mL
"Cc1cc(C)nc(Nc2ccccc2)n1 [pyrimethanil, 4,6-dimethyl-N-phenyl-2-pyrimidinamine]",MIC,"Botrytis cinerea; % DDAC + % test substance 0 + 100 (test substance alone), Glucose Agar, one week, read-out: MIC (minimum inhibitory concentration in ppm total a.i.)",2.11 µg/mL
"COC(=O)NC(=S)Nc1ccccc1NC(=S)NC(=O)OC [thioph. methyl, 4,4′-(o-phenylene)bis(3-thioallophanate)]",MIC,Botrytis cinerea; [1],2.11 µg/mL
"CCCOC/C(=N\c1ccc(Cl)cc1C(F)(F)F)n1ccnc1 [triflumizole, (E)-4-chloro-α,α,α-trifluoro-N-(1-imidazol-1-yl-2-propoxyethylidene)-o-toluidine]",MIC,"Botrytis cinerea; read-out: MIC (minimum inhibitory concentration in ppm total a.i.), % DDAC + % test substance 0 + 100 (test substance alone), Potato Dextrose Agar, one week",> 5 µg/mL
